Patent US20140206624A1, “TREATMENT OF LEUKEMIA” (THE BRIGHAM AND WOMEN'S HOSPITAL, INC., priority 2011, published 2014)

Key:
L-GMP population = assay: L-GMP and mature myeloid cell proportion in leukemic BM; assay type: in vivo, mouse; settings: seven days following pI-pC, Mx1-Cre+
Method: (§1) Seven days following the administration of saline or pI-pC, secondary mice transplanted with MLL-AF9-positive FoxO1/3/4^floxed; Mx1-Cre+ leukmic BM cells were euthanized. Leukemic BM cells were then isolated from each treatment condition (Saline (Ctrl) versus pI-pC (pI-pC)) were analyzed for the proportion of L-GMPs (lineage^low, Sca-1^−, cKit^hi, CD34^+, FcgRII/III^+, p=0.039; n=3).
as §1, with “leukemic” for “leukmic”, “mature myeloid cells (lineage^hi, CD11b^+, p=0.0098; n=3)” for “L-GMPs (lineage^low, Sca-1^−, cKit^hi, CD34^+, FcgRII/III^+, p=0.039; n=3).”
L-GMP and GMP populations were analyzed and sorted with a BD FACSARIA™ instrument (BD™ Biosciences). To analyze and isolate L-GMPs and GMPs, total BM cells were recovered from flushing the tibias and femurs of leukemic and healthy mice respectively with PBS supplemented with 2% FBS and 1% Penicillin/Streptomycin (F-PBS). […] For Phosphoflow experiments, cells were stained with cKit-Ax750 and CD34-antibodies in combination with phospho-AKT^Ser473-PE, phospho-AKT^Thr308-APC or phospho-S6^Ser235/236-APC antibodies and analyzed on a FACSAria according to the following protocol: • 1. […]

MLL-AF9 induced AML = assay: MLL-AF9 BMT assay, WBC monitoring and survival/latency; assay type: in vivo, mouse
Description: WBC analysis of peripheral blood collected every 4-14 days post-transplant from Mx1-Cre+ saline and pI-pC-treated mice. Data is independent from Panel C (n=4).
Kaplan-Meier survival curve analysis of recipient mice Mx1-Cre− transplanted and treated as described above; n=6, p=0.6899.
Kaplan-Meier survival curve analysis of recipient mice Mx1-Cre+ transplanted and treated as described above. (p=0.0009; n=10).
After transduction, infected cells were transplanted into lethally irradiated (2 doses of 450rad gIR separated by 12 hours) F1 FVB/C57/Bl6 mice. Recipient mice developed leukemia within 70-80 days with a median survival of 77 days. Mononuclear BM cells recovered from leukemic mice were then transplanted into secondary sub-lethally irradiated recipients. Fourteen days following transplant, secondary recipients were administered intra-peritoneally three doses of saline or 12.5 mg/kg pI-pC (GE Healthcare Life Sciences) every 2 days. Mice were then monitored for external (i.e. moribund) and internal (white blood cell counts) signs of leukemia.
To distinguish whether disrupting FoxO1/3/4 expression eliminated MLL-AF9 leukemia or merely delayed the onset, FoxO1/3/4^floxed; Mx1-Cre−; MLL-AF9 and FoxO1/3/4^floxed; Mx1-Cre+; MLL-AF9 leukemic cells were separately transplanted into sub-lethally irradiated recipients. Fourteen days post-transplant, mice were administered either pI-pC or saline and subsequently monitored daily for clinical signs of leukemia. Peripheral blood from recipient mice was collected and analyzed for WBC counts every 4-14 days. Mice were euthanized upon displaying external morbidity and/or elevated WBC counts. […] However, despite efficient excision of FoxO1/3/4 (FIGS. 10C-10F) the majority of mice eventually succumbed to leukemia (FIG. 9F).

For polyinosine-polycytidyline [pI-pC], the L-GMPs (L-GMP population) was “immunophenotypic reduction”, the “lineage^hi, CD11b^hi(+) myeloid cells” value (L-GMP population) was “concomitant increase” and the “latency for the onset of AML” value (MLL-AF9 induced AML; Mx1-Cre+ leukemic cells, excision of FoxO1/3/4) was “significantly longer latency”. For the same substance, the WBC counts (MLL-AF9 induced AML; Mx1-Cre+ mice, blood every 4-14 days) was “lower WBC counts than saline-treated controls” and the “mice disease-free up to 5 months post-excision” value (MLL-AF9 induced AML; Mx1-Cre+, n=10) was 20%.
